Experimental data as given in US7041677B2, “Use of monochloroflosequinan in the treatment of sexual dysfunction” (R.T. Alamo Ventures I, LLC, priority 2002, dated 2006).
Where “and” joins values, the source holds several entries; their conditions need not be identical. Identical values can stand only once. Marks after values point to notes of the source that are not given here.

System: male Cynomolgus monkeys (Macaca fascicularis)
Experiment: Erection monitoring after single intracavernosal dose
Assay type: in vivo
Design: key to Onset Score / Duration Score: 0: no response; erection but transient—less than 1 minute; 2: erection lasting at least 1 minute but less than 5 minutes; 3: erection lasting at least 5 minutes but less than 7 minutes; 4: erection lasting longer than 7 minutes
Details: for Onset of Erection: minutes post administration; for Erection Score: Erection Score=2D+O; for Erection Index: Erection Score/n, n=number of animals (4 monkeys); for inducing penile erections: Cynomolgus monkeys, intracavernosal, summary of Tables 4 & 5
Procedure: In this example, various halogenated derivatives of flosequinan were evaluated for their ability to induce penile erections. A single intracavernosal dose (of a given halogenated derivative of flosequinan) was administered to male Cynomolgus monkeys (Macaca fascicularis). The Cynomolgus monkey was selected because it is an appropriate established non-rodent species to be used as an erectile dysfunction model. Before the application of the test substances the possible erectile effect of dimethylsulfoxide 25% (DMSO) at a dose volume of 0.15 ml was assessed. (Concentrations of test compounds of less than 10 mg/ml were administered in 25% DMSO. Concentrations of 10 mg/ml or greater were administered in 100% DMSO). An initial dose level of 0.625 mg/kg of the test substance and the derivatives were used. If an erectile effect of the initial dose level was observed 1.25 mg/kg and finally 2.5 mg/kg of each test substance was used. Between each dose level and change of test substance there was a wash out phase of three days [except on Days 1 to 4 (Monochloroflosequinan Racemate) and days 40 to 43 (Monofluoroflosequinan) of the study where there was a wash out phase of only two days between treatments]. Dose volume: A dose volume of 0.15 ml per animal was used. The test substances were prepared according to the following scheme. For each test substance 10 mg was diluted in 1 ml of DMSO. After the test substance was completely dissolved the solution was diluted stepwise 1:2 with double distilled water to the required dose level. The test substance was formulated on the day of the dosing and stored at room temperature. No stability test was required when the test substances were formulated on the day of dosing. Remaining test substances were stored at approximately -80° C. Sufficient purpose-bred naive Cynomolgus monkeys (Macaca fascicularis) were obtained from a recognized supplier in order to provide 4 healthy male animals. At the start of study the animals were in the weight range of 4 to 7 kg and approximately 4 to 6 years old. The animals were housed in a climate controlled room to provide a minimum of 10 air changes per hour. Routinely the temperature and relative humidity ranges were between 19-25° C. and 30-70% respectively. Artificial lighting was controlled automatically to give a cycle of 12 hours light and 12 hours dark. The animals were housed singly in stainless steel cages (dimensions: 600 mm×600 mm×800 mm; E. Becker & Co. GmbH, 44579 Castrop-Rauxel, Germany). Each animal was offered twice daily between 50 to 70 g of a commercial pellet diet for primates (Ssniff P10, Ssniff Spezialdiäten GmbH, Ferdinand-Gabriel-Weg 16, 59494 Soest, Germany). Every three months diet was analyzed for specific contaminants. Tap water was provided ad libtum via an automatic watering system or bottles, except during urine collection. The water was periodically analyzed for specific contaminants found to be present in the diet or water at levels that might interfere with achieving the objective of the study. Clinical Observations: In addition to the initial pharmacological effect (penile erection) monitoring, all animals were observed twice daily for signs of ill health or overt toxicity. An individual record was maintained of the clinical condition of each animal. Post-dosing observations were performed at the discretion of the Study Director. All animals were examined at the beginning and the end of the working hours. […] Body weights were recorded once before dosing. Food consumption was not recorded. For proof of erection capability the animals were checked once pre-dose with electrostimulation using a rectal probe under sedation with […]. […] The onset post drug administration and duration of erection were recorded. Table 5 (below) provides an “Erection Score” and “Erection Index” for the same selected halogenated flosequinan derivatives presented in Table 5. […]

[1] = 2.5 mg/ml intracavernosal, monkey 11539M
[2] = 2.5 mg/ml intracavernosal, monkey 11543M
[3] = 2.5 mg/ml intracavernosal, monkey 11584M
[4] = 2.5 mg/ml intracavernosal, monkey 11590M
[5] = 10 mg/ml intracavernosal, monkey 11539M
[6] = 10 mg/ml intracavernosal, monkey 11543M
[7] = 10 mg/ml intracavernosal, monkey 11584M
[8] = 10 mg/ml intracavernosal, monkey 11590M
[9] = 0.625 mg/ml intracavernosal, monkey 11539M
[10] = 0.625 mg/ml intracavernosal, monkey 11543M
[11] = 0.625 mg/ml intracavernosal, monkey 11584M
[12] = 0.625 mg/ml intracavernosal, monkey 11590M

Cn1cc([S@+]([O-])CCl)c(=O)c2ccc(F)cc21 (single isomer, unassigned) [(+)-enantiomer of monochloroflosequinan]
Duration Erection [1]: <1 min
Duration Score [1]: 1 (erection but transient—less than 1 minute)
Onset Score [1]: 1 (erection onset longer than 10 minutes)
Onset of Erection [1]: 107* min
Erection Score [1]: 3
Duration Erection [2]: <1 min
Duration Score [2]: 1 (erection but transient—less than 1 minute)
Onset Score [2]: 1* (erection onset longer than 10 minutes)
Onset of Erection (2.5 mg/ml intracavernosal, monkey 11543M, listed as MONOCHLOROFLOSEQUINAN S(+)): 34* min and 38* min and 39^a* ejaculation min
Erection Score [2]: 3
Duration Score [3]: 1 (erection but transient—less than 1 minute)
Onset Score [3]: 1 (erection onset longer than 10 minutes)
Erection Score [3]: 3
Duration Score [4]: 3 (erection lasting at least 5 minutes but less than 7 minutes)
Onset Score [4]: 4 (erection onset 1 minute or less (immediate))
Erection Score [4]: 10
Erection Index (2.5 mg/ml intracavernosal): 4.8
Duration Score [5]: 0
Onset Score [5]: 4* (erection onset 1 minute or less (immediate))
Erection Score [5]: 4
Duration Score [6]: 0
Onset Score [6]: 0
Erection Score [6]: 0
Duration Erection [7]: <1 min
Duration Score [7]: 1 (erection but transient—less than 1 minute)
Onset Score [7]: 3* (erection onset between 2 and 4 minutes)
Erection Score [7]: 5
Duration Erection [8]: 8 min
Duration Score [8]: 4 (erection lasting longer than 7 minutes)
Onset Score [8]: 4 (erection onset 1 minute or less (immediate))
Onset of Erection [8]: immediate <1 min
Erection Score [8]: 12
Erection Index (10 mg/ml intracavernosal): 5.3
inducing penile erections: especially effective

Cn1cc([S@@+]([O-])CCl)c(=O)c2ccc(F)cc21 (single isomer, unassigned) [(−)-enantiomer of monochloroflosequinan]
Duration Score [5]: 0
Onset Score [5]: 0
Erection Score [5]: 0
Duration Score [6]: 0
Onset Score [6]: 0
Erection Score [6]: 0
Duration Score [7]: 0
Onset Score [7]: 0
Erection Score [7]: 0
Duration Erection [8]: 7 min
Duration Score [8]: 3 (erection lasting at least 5 minutes but less than 7 minutes)
Onset Score [8]: 4 (erection onset 1 minute or less (immediate))
Onset of Erection [8]: immediate <1 min
Erection Score [8]: 10
Erection Index (10 mg/ml intracavernosal): 2.5

Cn1cc([S+]([O-])C(Cl)Cl)c(=O)c2ccc(F)cc21 (stereo not shown) [dichloroflosequinan, 3-dichloromethylsulfinyl-7-fluoro-1-methyl-4-quinolone]
Duration Score [5]: 0
Onset Score [5]: 0
Erection Score [5]: 0
Duration Erection [6]: 1 min
Duration Score [6]: 2 (erection lasting at least 1 minute but less than 5 minutes)
Onset Score [6]: 4 (erection onset 1 minute or less (immediate))
Erection Score [6]: 8
Duration Erection [7]: 1 min
Duration Score [7]: 2 (erection lasting at least 1 minute but less than 5 minutes)
Onset Score [7]: 4 (erection onset 1 minute or less (immediate))
Onset of Erection [7]: immediate <1 min
Erection Score [7]: 8
Duration Erection [8]: 7 min
Duration Score [8]: 4 (erection lasting longer than 7 minutes)
Onset Score [8]: 4 (erection onset 1 minute or less (immediate))
Onset of Erection [8]: immediate <1 min
Erection Score [8]: 12
Erection Index (10 mg/ml intracavernosal): 7.0
inducing penile erections: especially effective

Cn1cc([S+]([O-])CCl)c(=O)c2ccc(F)cc21 (racemic) [monochloroflosequinan, 3-chloromethylsulfinyl-7-fluoro-1-methyl-4-quinolone]
Duration Score [9]: 0
Onset Score [9]: 0
Erection Score [9]: 0
Duration Erection [10]: <1 min-^
Duration Score [10]: 0
Onset Score [10]: 0
Onset of Erection [10]: 70^a* min
Erection Score [10]: 0
Duration Score [11]: 0
Onset Score [11]: 0
Erection Score [11]: 0
Duration Score [12]: 0
Onset Score [12]: 0
Erection Score [12]: 0
Erection Index (0.625 mg/ml intracavernosal): 0
Duration Score [1]: 0
Onset Score [1]: 0
Erection Score [1]: 0
Duration Score [2]: 0
Onset Score [2]: 0
Erection Score [2]: 0
Duration Score [3]: 0
Onset Score [3]: 0
Erection Score [3]: 0
Duration Score [4]: 0
Onset Score [4]: 0
Erection Score [4]: 0
Erection Index (2.5 mg/ml intracavernosal): 0
Duration Score [5]: 0
Onset Score [5]: 0
Erection Score [5]: 0
Duration Score [6]: 0
Onset Score [6]: 0
Erection Score [6]: 0
Duration Score [7]: 0
Onset Score [7]: 0
Erection Score [7]: 0
Duration Score [8]: 0
Onset Score [8]: 0
Erection Score [8]: 0
Erection Index (10 mg/ml intracavernosal): 0
